Like-named read-outs stand apart in the source and are kept apart here.

One data set has as its system α-hemoglobin. The arrangement: method as in earlier work. The note with it: formyl warhead, ref Center for Drug Evaluation and Research, 2017, Metcalf et al.; cited from earlier work.
In data set [1] the test system is NCI-H358, MIA PaCa-2, MDA-MB-231 and A375 3D spheroids. In words: 3D spheroid growth benchmarking, DSS3, alamarBlue. The class given is cell-based. Particulars: spheroids grown 72 h then treated 72 h. Here is the method: (§1) 3D spheroid formation assays were performed in 96-well low-attachment, suspension culture plates (cat. no. 655185, Cellstar, Greiner Bio-One) under serum-free condition. About 1,000 (MDA-MB-231, NCI-H358, and MIA PaCa-2) or 2,500 (Hs 578T) cells per well were seeded in 50 μl of either an RPMI medium (cat. no. 52400-025, Gibco, Thermo Fisher Scientific) (MDA-MB-231, A375, and NCI-H358) or DMEM (cat. no. 41965-039, Gibco, Thermo Fisher Scientific) (Hs 578T and MIA PaCa-2), containing 0.5% MethoCult (cat. no. SF H4636, Stemcell technologies), 1x B27 (cat. no. 17504044, Gibco, Thermo Fisher Scientific), 25 ng/ml EGF (cat. no. E9644, Sigma-Aldrich), and 25 ng/ml FGF (cat. no. RP-8628, Thermo Fisher Scientific). Cells were cultured for 3 days and then treated with compounds or vehicle control (DMSO 0.1% v/v in growth medium) for another 3 days. The cells were supplemented with a fresh growth medium on the third day together with the drug treatment. For knockdown experiments, cells were seeded in 12-well plates and treated with either 50 nM scrambled siRNA (cat. no. 1022076, QIAGEN) or indicated concentrations of siRNAs. Next day, cells were collected by trypsinization and re-plated into 96-well plates for 3D spheroid suspension culture.
(§2) Spheroid formation efficiency was analyzed by an alamarBlue assay reagent (cat. no. DAL1100, Thermo Fisher Scientific). A 10% final volume of the alamarBlue reagent was added to each well of the plate and incubated for 4 h at 37°C. Then the fluorescence intensity was measured using the FLUOstar OPTIMA plate reader (BMG Labtech, Germany) with an excitation wavelength of 560 ± 5 nm and an emission wavelength of 590 ± 5 nm.
(§3) To quantitatively profile the drug sensitivity with a more robust parameter than the IC50 or EC50 values, the drug sensitivity score (DSS) analysis was employed. DSS values are essentially normalized area under the curve (AUC) measures of dose-response inhibition data ([Yadav et al., 2014]). Drug response data files (in Excel) ready for online analysis were prepared according to the example file obtained from the DSS pipeline website, called Breeze^1 ([Potdar et al., 2020]). Either raw fluorescence intensity measurements or normalized % inhibition data (for BRET assay analysis) were uploaded.
(§4) DSS3 was employed to emphasize drugs that obtain their response area over a relatively wide dose window, as compared to drugs that show increased response only at the higher end of the concentration range. After logistic fitting of the dose-response inhibition data, the area under the curve (AUC) was determined as the exact solution. A 10% minimal activity threshold (t) was set. The maximum (Cmax) and minimum (Cmin) concentrations were used for screening of the inhibitors, with Cmax = x2 and x1 concentration with minimal activity t.

For a further data set, the system named is H-RasG12V. In words: H-RasG12V nanoclustering-BRET assay in HEK293-EBNA cells. It is filed as cell-based. Particulars: FTI-277 1 μM, 24 h. The method, then:
BRET assays were essentially performed as described by others ([Lavoie et al., 2013]; [Bery et al., 2018]). About 100,00–150,000 HEK293-EBNA ([Meissner et al., 2001]) cells were seeded per well of a 12-well plate in 1 ml of DMEM containing 10% FBS and 2 mM L-glutamine and were grown for 24 h. Next day, Rluc8-tagged donor and GFP2-tagged acceptor constructs were transfected into cells using a jetPRIME transfection reagent (cat. no. 114-75, Polyplus). Each well was transfected with about 1 μg of plasmid DNA using 3 μl of the jetPRIME reagent. […] Then fluorescence intensity followed by BRET readings were carried out on a Clariostar (BMG Labtech) plate reader at 25°C. The fluorescence intensity (RFU) of GFP2 was measured with excitation at 405 ± 10 nm and emission 515 ± 10 nm; it is proportional to the acceptor concentration [acceptor]. BRET readings were taken well by well by adding 10 μl of 100 μM coelenterazine 400a (cat. no. C-320, GoldBio), the Rluc8 substrate to each well (final concentration of 10 μM) using the injector present in the plate reader. Luminescence emission intensities were simultaneously recorded at 410 ± 40 nm (RLU, proportional to [donor]) and 515 ± 15 nm (BRET signal).
The raw BRET ratio was calculated as the BRET signal measured at 515 nm divided by the emission signal measured at 410 nm (RLU). […]

Another data set deals with MDA-MB-231. In words: 3D spheroid (tumorosphere) formation assay, low attachment, serum-free, alamarBlue. It is filed as cell-based. The note with it: for IC50: Homo sapiens. Here is the method: as §1, §2, §3, §4
Another data set deals with Hs 578T. The description is as above. It is filed as cell-based. Particulars: Homo sapiens. Here is the method:
as §1, §2, §3, §4

In a further data set the target is calmodulin (CaM) (Bos taurus, UniProt P62157). In words: Fluorescence polarization assay, displacement of F-PMCA peptide from CaM.
A further data set is described as follows: Chemical stability note. The class given is physicochemical.

Regarding `CC(C)n1nccc1-c1ncccc1COc1cccc(O)c1C=O` [GBT440], in the data set with α-hemoglobin, the k2/Ki is given as 15 × 10^3 M^–1 h^–1.
Take `C=CC(=O)N1CCN(c2nc(=O)n(-c3c(C)ccnc3C(C)C)c3nc(-c4c(O)cccc4F)c(F)cc23)[C@@H](C)C1` [AMG-510]: in data set [1], the “effect on 3D spheroid growth” value was “selectively and potently abolished the growth”.
As for `COC(=O)[C@H](CCSC)NC(=O)c1ccc(NC[C@@H](N)CS)cc1-c1ccccc1` [FTI-277], the “H-Ras selective decrease of nanoclustering-BRET” value with H-RasG12V stood at 1.4 fold.
`CC(C)c1ccc2cc(C(F)(F)F)c(=O)c3c(N4CCN(C)CC4)c(C=O)c(c1)c23` [Compound 3]: the IC50 in the data set with MDA-MB-231 (72 h, MDA-MB-231 (K-RasG13D) 3D tumorosphere, 3 days treatment, read-out: IC50) was 35 µM; with MDA-MB-231 (MDA-MB-231 3D tumorosphere, log scale, read-out: logIC50 ± SD (converted)), 34.7 µM; with Hs 578T (72 h, Hs 578T (H-RasG12D) 3D tumorosphere, 3 days treatment, read-out: IC50), 25.8 µM; in the data set on Hs 578T (Hs 578T 3D tumorosphere, log scale, read-out: logIC50 ± SD (converted)), 25.1 µM. Further, in the data set with MDA-MB-231 (MDA-MB-231 vs Hs 578T 3D spheroid formation, 0.6–40 μM, numbers above bars Fig. 1A,B), the “KRAS/HRAS mutant cell line DSS3 ratio” value turned out to be 6.0. The compound further yielded a Kd at calmodulin (CaM) of 0.25 µM. The compound further gave an inhibition constant Ki on calmodulin (CaM) of 11 µM. Also, at calmodulin (CaM) (after 24-h incubation, higher affinity than OphA), the “affinity for CaM relative to OphA” value stood at 15 fold. Also, the kinact/KI at calmodulin (CaM) (read-out: k2/Ki second-order rate constant) was 11.7 M⁻¹ s⁻¹. Moreover, the chemical stability entry in “Chemical stability note” is “chemically not as stable”.

(Values after article PMC8296985, “A Covalent Calmodulin Inhibitor as a Tool to Study Cellular Mechanisms of K-Ras-Driven Stemness” (Frontiers in Cell and Developmental Biology, 2021).)
